Test results from patent EP4741395A1, “NOVEL COMPOUND SENSITIVE TO NITROGEN MONOXIDE AND PHARMACEUTICAL COMPOSITION COMPRISING SAME” (Omniamed Co. Ltd, priority 2023, dated 2025).

Assays:
[1] = DAF-2 assay of NO scavenging activity without and with H2O2 (ROS); format: biochemical; settings: SNAP 100 µM, DAF-2 10 µM, 3 hours, 37°C; for NO Scavenging Activity (%) (Mean±SD) With H2O2: H2O2 1 mM
Experimental: The pharmaceutical composition sensitive to nitrogen monoxide including the compound according to each of Examples 23 to 28 and 32 may have scavenging activity for reactive oxygen species (ROS). NO scavenging activity of the pharmaceutical composition was evaluated through a DAF-2 assay.
Specifically, to a 100 µM solution of SNAP, the compound synthesized in each of the Examples was added at a concentration of the following Table 2, and reacted. Then 10 µM of DAF-2 was added thereto, followed by a reaction for 3 hours in a 37°C incubator.
Additionally, a stock solution of H2O2 (10 M) was added to the reaction solution so that SNAP and H2O2 had final concentrations of 100 µM and 1 mM, respectively. Then, the compound synthesized in each of the Examples was added thereto at a concentration of the following Table 11, followed by a reaction in the same manner, and NO scavenging activity was calculated by Equation 1.

Raw 264.7 cell line = experiment: NO scavenging activity in LPS-treated immune cells (Griess reagent); format: cell-based; settings: Mus musculus, RAW264.7, Raw 264.7, LPS 500 ng/mL, 24 hours, read-out: NO Scavenging Activity (%) (Mean±SD)
Experimental: Raw 264.7 cell line was seeded in a 48-well plate at a density of 8×10^4 cells/well, and cultured at 37°C in a DMEM medium including 10% FBS, 100 U/mL of penicillin and 100 µg/mL of streptomycin.
The medium was cultured overnight, and then replaced with a fresh medium including 10 µM of the pharmaceutical composition sensitive to nitrogen monoxide including the compound of each of Examples 1 to 30 and 500 ng/mL of LPS, and the fresh medium was cultured again for another 24 hours.
Lastly, in order to measure the amount of NO produced, the amount of NO2^- present in the cell culture medium was measured using a Griess reagent (sulfanilamide, N-1-naphthylethylenediamine dihydrochloride). Specifically, 100 µL of a Griess reagent was mixed with a mixture solution of 50 µL of the cell culture medium and 50 µL of PBS. The mixture solution was reacted for 10 minutes in a well plate, and absorbance thereof at 540 nm was measured.

splenocytes [2] = experiment: NO scavenging activity in Concanavalin A-treated splenocytes (Griess assay); format: cell-based, C57BL/6 mouse; settings: Mus musculus, Splenocyte, Concanavalin A 5 µg/mL, 72 hours, read-out: NO Scavenging Activity (%) (Mean±SD)
Experimental: (§1) A spleen was isolated from an 8-week-old C57BL/6 mouse, and splenocytes were isolated using a physical method.
(§2) The separated splenocytes were diluted to a concentration of 5×10^6 cells/mL in a RPMI 1640 medium including 10% FBS, 100 U/mL of penicillin and 100 µg/mL of streptomycin, and the diluted splenocytes were dispensed at 500 µL/well into a 48-well plate and 100 µL/well into a 96-well plate, and cultured for 72 hours in an incubator. The splenocytes were treated with Concanavalin A (5 µg/mL) when dispensed to induce an immune response, and herein, […] of the pharmaceutical composition including the compound according to each of the Examples was also added thereto. After 72 hours, the supernatant was collected, and the level of remaining NO was checked through a Griess assay, and calculated by the following Equation 4.

IFN-γ = IFN-γ reduction activity in Concanavalin A-treated splenocytes (quantitative ELISA); format: cell-based, C57BL/6 mouse; settings: Mus musculus, Splenocyte, Concanavalin A 5 µg/mL, 72 hours, read-out: IFN-γ Reduction Activity (%) (Mean±SD)
Experimental: as §1, §2
NO is one of important inflammatory mediators, and may increase the level of inflammatory cytokine. Concanavalin A (5 µg/mL), which induces an immune response in splenocytes, and the compound of each of Examples were treated in a concentration-dependent manner to check whether the level of IFN-γ, a representative inflammatory cytokine, was reduced. The supernatant was collected 72 hours after the treatment, and analyzed using a quantitative enzyme-linked immunosorbent assay (Quantitative-ELISA).

splenocytes [3] = experiment: Inhibitory activity on cell proliferation in splenocytes (CCK-8 analysis); format: cell-based, C57BL/6 mouse; settings: Mus musculus, Splenocyte, Concanavalin A 5 µg/mL, 72 hours, read-out: Inhibitory Activity on Cell Proliferation (%) (Mean±SD)

SMILES | NO Scavenging Activity (%) (Mean±SD) Without H2O2 ([1]; compound 1 µM) | NO Scavenging Activity (%) (Mean±SD) With H2O2 ([1]; compound 1 µM) | NO Scavenging Activity (%) (Mean±SD) Without H2O2 ([1]; compound 5 µM) | NO Scavenging Activity (%) (Mean±SD) With H2O2 ([1]; compound 5 µM) | NO Scavenging Activity (%) (Mean±SD) Without H2O2 ([1]; compound 10 µM) | NO Scavenging Activity (%) (Mean±SD) With H2O2 ([1]; compound 10 µM) | activity at 10 µM (Raw 264.7 cell line) | activity at 10 µM (splenocytes [2]) | activity at 10 µM (IFN-γ) | inhibition at 10 µM (splenocytes [3])
C[C@@H]1CCN(C(=O)CC#N)C[C@@H]1N(C)c1ncnc2c1ccn2C(=O)N(C)CCN(C)C(=O)Nc1cc2c(cc1NC(=O)OCc1ccc(B(O)O)cc1)n(C)c(=O)n2C [Example 24, (4-((((6-(3-(2-(4-(((3R,4R)-1-(2-cyanoacetyl)-4-methylpiperidin-3-yl)(methyl)amino)-N-methyl-7H-pyrrolo[2,3-d]pyrimidine-7-carboxamido)ethyl)-3-methylureido)-1,3-dimethyl-2-oxo-2,3-dihydro-1H-benzo[d]imidazol-5-yl)carbamoyl)oxy)methyl)phenyl)boronic acid] | 16.43 ±4.86% | 34.66 ±3.80% | 27.84 ±7.68% | 43.58 ±6.00% | 40.54 ±3.96% | 53.52 ±3.09% | 9.8 ± 0.64% | 78.3 ± 0.5% | 95.5 ± 0.15% | 67.2 ± 4.67%
C[C@@H]1CCN(C(=O)CC#N)C[C@@H]1N(C)c1ncnc2c1ccn2C(=O)Nc1ccccc1NC(=O)OCc1ccc(B2OC(C)(C)C(C)(C)O2)cc1 [Example 25, 4-(4,4,5,5-tetramethyl-1,3,2-dioxaborolan-2-yl)benzyl (2-(4-(((3R,4R)-1-(2-cyanoacetyl)-4-methylpiperidin-3-yl) (methyl)amino)-7H-pyrrolo[2,3-d]pyrimidine-7-carboxamido)phenyl) carbamate] | – | – | – | – | 42.36 ±1.91% | 89.96 ±0.19% | 63.2 ± 0.56% | 100% | 98.7 ± 0.04% | 81.4 ± 7.94%
Cc1ccc(NC(=O)OCc2ccc(B3OC(C)(C)C(C)(C)O3)cc2)c(NC(=O)n2ccc3c(N(C)[C@H]4CN(C(=O)CC#N)CC[C@H]4C)ncnc32)c1 [Example 26, 4-(4,4,5,5-tetramethyl-1,3,2-dioxaborolan-2-yl)benzyl (2-(4-(((3R,4R)-1-(2-cyanoacetyl)-4-methylpiperidin-3-yl) (methyl)amino)-7H-pyrrolo[2,3-d]pyrimidine-7-carboxamido)-4-methylphenyl)carbamate] | – | – | – | – | 42.98 ±2.51% | 92.96 ±0.04% | 73.7 ± 0.33% | 100% | 97.4 ± 0.1% | 75.6 ± 0.96%
COc1ccc(NC(=O)OCc2ccc(B3OC(C)(C)C(C)(C)O3)cc2)c(NC(=O)n2ccc3c(N(C)[C@H]4CN(C(=O)CC#N)CC[C@H]4C)ncnc32)c1 [Example 27, 4-(4,4,5,5-tetramethyl-1,3,2-dioxaborolan-2-yl)benzyl (2-(4-(((3R,4R)-1-(2-cyanoacetyl)-4-methylpiperidin-3-yl) (methyl)amino)-7H-pyrrolo[2,3-d]pyrimidine-7-carboxamido)-4-methoxyphenyl)carbamate] | – | – | – | – | 59.31 ±0.55% | 97.09 ±0.01% | 59.3 ± 0.06% | 77.6 ± 1.24% | 74.6 ± 2.41% | 81.1 ± 9.03%
C[C@@H]1CCN(C(=O)CC#N)C[C@@H]1N(C)c1ncnc2c1ccn2C(=O)Nc1cc2c(cc1NC(=O)OCc1ccc(B3OC(C)(C)C(C)(C)O3)cc1)n(C)c(=O)n2C [Example 28, 4-(4,4,5,5-tetramethyl-1,3,2-dioxaborolan-2-yl)benzyl (6-(4-(((3R,4R)-1-(2-cyanoacetyl)-4-methylpiperidin-3-yl) (methyl)amino)-7H-pyrrolo[2,3-d]pyrimidine-7-carboxamido)-1,3-dimethyl-2-oxo-2,3-dihydro-1H-benzo[d]imidazol-5-yl)carbamate] | 3.73± 0.57% | 76.23 ±0.94% | 13.25 ±0.69% | 98.01 ±0.04% | 14.18 ±0.62% | 98.34 ±0.05% | 49.8 ± 0.43% | 92 ± 0.56% | 100% | 80.7 ± 7.12%
